In US20230384334A1, “METHOD FOR CALCULATING DRINKING TIME” (Shanxi Medical University, priority 2022, published 2023):
Where two headings read alike, the source gives them in different places.

Settings: in vivo
Protocol: Approved by the Medical Ethics Committee of Shanxi Medical University (2018LL349), a total of 26 adults including 14 men and 12 women are recruited by the team to participate in the study.
All the blood samples were stored at −20 DEG C. until the end of the analysis.
1 mL of blood and 1 mL of tert-butanol (IS, 87 mg/mL) were added to a headspace vial, diluted with 3 mL of ultrapure water, mixed in a sealed condition, and then analyzed by the headspace gas chromatography.
Metabolites EtG and EtS in blood samples were measured by liquid chromatography-tandem quadrupole mass spectrometry (LC-MS/MS) with EtG-D5 and EtS-D5 as internal standards. […] Then 800 μL of 80% acetonitrile in methanol was added, and the mixture is precipitated at 0 DEG C. for 10min. After that, centrifugation was performed at 13000 rpm for 5 min, supernatant was taken out, and dried, by blowing, with nitrogen at 35 DEG C., and then re-dissolved with 400 μL of 5% acetonitrile in water and centrifuged again at 13000 rpm for 5 min.
Chromatograph separation was performed via an LC-20 A system. Conditions of the chromatograph were as follows:
chromatographic column: Inertsil ODS-3 column (2.1 mm×100 mm, 3 μm; Shimadzu, Japan) , and column temperature: 35 DEG C.
Targeted substances were tested by a tandom mass spectrometer (TRAP4,000, Sciex, AB). The specific conditions were as follows:
Ion source: electron spray ionization (ESI); voltage of ion spray: −4000 V, and temperature: 500 DEG C.; curtain gas, nebulizer (Gas 1), and heating auxiliary gas (Gas 2): 40 psi, 50 psi, and 35 psi respectively.
Scanning mode: anions+multiple reaction monitoring (MRM).
The pharmacokinetic parameters were calculated by a non-compartmental model using a DAS 3.0 software. All data was summarized using descriptive statistics. […] All statistical analyses were performed using version 13.0 of an IBM SPSS® software (SPSS Inc., Chicago, IL, USA).

CCO[C@@H]1O[C@H](C(=O)O)[C@@H](O)[C@H](O)[C@H]1O [EtG, Ethyl glucuronide]
AUC (0-t), area under the curve (human, po): 1990 ± 780 ng·h/mL
Cmax, peak concentration (human, po): 310 ± 110 ng/mL
Tmax, time to peak (human, po): 4.12 ± 1.07 h
t1/2z, half-life period (human, po): 2.56 ± 0.89 h
LOD (h) in human blood (po): 22.15 ± 4.42 h

CCOS(=O)(=O)O [EtS, Ethyl sulphate]
Cmax, peak concentration (human, 0.72 g/kg): 170 ng/mL
AUC (0-t), area under the curve (human, po): 1040 ± 340 ng·h/mL
Cmax, peak concentration (human, po): 170 ± 40 ng/mL
t1/2z, half-life period (human, po): 2.04 ± 0.76 h
LOD (h) in human blood (po): 16.92 ± 6.23 h

CCO [alcohol, Alcohol]
AUC (0-t), area under the curve (human, po): 1,715.23 ± 626.72 mg/L*
Clz/F, clearance rate (human, po): 0.49 ± 0.33 L/h
Tmax, time to peak (human, po): 2.02 ± 0.54 h
Vz/F, apparent volume of distribution (human, po): 0.69 ± 0.49 L/kg
Detection window time (maximum observed value) in blood (po): 3 to 8 h
LOD (h) in human blood (po): 5.81 ± 1.74 h
